Assay results published in ChEMBL document CHEMBL5724806, “Unraveling interindividual differences and functional consequences of gut microbial metabolism of immunosuppressants” (2024).

Columns and labels:
Format in all cases: ADME
[1] = (§1) The drug is tested on Streptococcus salivarius strain: DSM20560 for biotransformation under microaerobic condition. The drug concentrations were measured over 6 timepoints collected between 0 and 12 hours of incubation by liquid-chromatography-coupled mass spectrometry (LC–MS); design: dose 5 uM, timepoint 0, 1.5, 3, 6, 9, 12 hours; settings: 5 µM
[2] = as §1, with “the gut metagenome community of A-01 with ENA study accession number: PRJEB31790” for “Streptococcus salivarius strain: DSM20560”, “7” for “6”; design: dose 5 uM, timepoint 0, 0.75, 1.5, 3, 6, 9, 12 hours; settings: 5 µM
[3] = as §1, with “the gut metagenome community of A-06 with ENA study accession number: PRJEB31790” for “Streptococcus salivarius strain: DSM20560”, “7” for “6”; design: dose 5 uM, timepoint 0, 0.75, 1.5, 3, 6, 9, 12 hours; settings: 5 µM
[4] = (§2) The drug is tested on the gut metagenome community of A-07 with ENA study accession number: PRJEB31790 for biotransformation under anaerobic condition. The drug concentrations were measured over 7 timepoints collected between 0 and 12 hours of incubation by liquid-chromatography-coupled mass spectrometry (LC–MS); design: dose 5 uM, timepoint 0, 0.75, 1.5, 3, 6, 9, 12 hours; settings: 5 µM
[5] = as §2, with “T-01” for “A-07”; design: dose 5 uM, timepoint 0, 0.75, 1.5, 3, 6, 9, 12 hours; settings: 5 µM
[6] = as §2, with “microaerobic” for “anaerobic”; design: dose 5 uM, timepoint 0, 0.75, 1.5, 3, 6, 9, 12 hours; settings: 5 µM
[7] = The drug is tested on Streptococcus mitis strain: DSM12643 for biotransformation under microaerobic condition. The drug concentrations were measured over 6 timepoints collected between 0 and 12 hours of incubation by liquid-chromatography-coupled mass spectrometry (LC–MS); design: dose 5 uM, timepoint 0, 1.5, 3, 6, 9, 12 hours; settings: 5 µM
[8] = The drug is tested on Bacteroides ovatus strain: ATCC 8483 for biotransformation under anaerobic condition. The drug concentrations were measured over 6 timepoints collected between 0 and 12 hours of incubation by liquid-chromatography-coupled mass spectrometry (LC–MS); design: dose 5 uM, timepoint 0, 1.5, 3, 6, 9, 12 hours; settings: 5 µM
[9] = The drug is tested on Lactobacillus fermentum strain: DSM20052 for biotransformation under microaerobic condition. The drug concentrations were measured over 6 timepoints collected between 0 and 12 hours of incubation by liquid-chromatography-coupled mass spectrometry (LC–MS); design: dose 5 uM, timepoint 0, 1.5, 3, 6, 9, 12 hours; settings: limosilactobacillus fermentum, 5 µM
[10] = The drug is tested on Akkermansia muciniphila strain: DSM22959 for biotransformation under anaerobic condition. The drug concentrations were measured over 6 timepoints collected between 0 and 12 hours of incubation by liquid-chromatography-coupled mass spectrometry (LC–MS); design: dose 5 uM, timepoint 0, 1.5, 3, 6, 9, 12 hours; settings: 5 µM
[11] = The drug is tested on Bacteroides xylanisolvens strain: HM 722 for biotransformation under anaerobic condition. The drug concentrations were measured over 6 timepoints collected between 0 and 12 hours of incubation by liquid-chromatography-coupled mass spectrometry (LC–MS); design: dose 5 uM, timepoint 0, 1.5, 3, 6, 9, 12 hours; settings: 5 µM
[12] = The drug is tested on Odoribacter splanchnicus strain: DSM20712 for biotransformation under anaerobic condition. The drug concentrations were measured over 6 timepoints collected between 0 and 12 hours of incubation by liquid-chromatography-coupled mass spectrometry (LC–MS); design: dose 5 uM, timepoint 0, 1.5, 3, 6, 9, 12 hours; settings: 5 µM
[13] = as §2, with “A-05” for “A-07”, “microaerobic” for “anaerobic”; design: dose 5 uM, timepoint 0, 0.75, 1.5, 3, 6, 9, 12 hours; settings: 5 µM
[14] = The drug is tested on Gemella haemolysans strain: DSM107751 for biotransformation under anaerobic condition. The drug concentrations were measured over 6 timepoints collected between 0 and 12 hours of incubation by liquid-chromatography-coupled mass spectrometry (LC–MS); design: dose 5 uM, timepoint 0, 1.5, 3, 6, 9, 12 hours; settings: 5 µM
[15] = The drug is tested on Coprococcus comes strain: ATCC27758 for biotransformation under anaerobic condition. The drug concentrations were measured over 6 timepoints collected between 0 and 12 hours of incubation by liquid-chromatography-coupled mass spectrometry (LC–MS); design: dose 5 uM, timepoint 0, 1.5, 3, 6, 9, 12 hours; settings: 5 µM
[16] = The drug is tested on Streptococcus salivarius strain: DSM20560 for biotransformation under anaerobic condition. The drug concentrations were measured over 6 timepoints collected between 0 and 12 hours of incubation by liquid-chromatography-coupled mass spectrometry (LC–MS); design: dose 5 uM, timepoint 0, 1.5, 3, 6, 9, 12 hours; settings: 5 µM
[17] = as §2, with “P-04” for “A-07”, “microaerobic” for “anaerobic”; design: dose 5 uM, timepoint 0, 0.75, 1.5, 3, 6, 9, 12 hours; settings: 5 µM
[18] = The drug is tested on Alloscardovia omnicolens strain: DSM21503 for biotransformation under microaerobic condition. The drug concentrations were measured over 6 timepoints collected between 0 and 12 hours of incubation by liquid-chromatography-coupled mass spectrometry (LC–MS); design: dose 5 uM, timepoint 0, 1.5, 3, 6, 9, 12 hours; settings: 5 µM
[19] = as §2, with “P-01” for “A-07”, “microaerobic” for “anaerobic”; design: dose 5 uM, timepoint 0, 0.75, 1.5, 3, 6, 9, 12 hours; settings: 5 µM
[20] = The drug is tested on Clostridium ramosum strain: DSM1402 for biotransformation under anaerobic condition. The drug concentrations were measured over 6 timepoints collected between 0 and 12 hours of incubation by liquid-chromatography-coupled mass spectrometry (LC–MS); design: dose 5 uM, timepoint 0, 1.5, 3, 6, 9, 12 hours; settings: thomasclavelia ramosa, 5 µM
[21] = as §2, with “P-03” for “A-07”, “microaerobic” for “anaerobic”; design: dose 5 uM, timepoint 0, 0.75, 1.5, 3, 6, 9, 12 hours; settings: 5 µM
[22] = The drug is tested on Gemella morbillorum strain: DSM20572 for biotransformation under anaerobic condition. The drug concentrations were measured over 6 timepoints collected between 0 and 12 hours of incubation by liquid-chromatography-coupled mass spectrometry (LC–MS); design: dose 5 uM, timepoint 0, 1.5, 3, 6, 9, 12 hours; settings: 5 µM
[23] = The drug is tested on Eubacterium eligens strain: DSM3376 for biotransformation under anaerobic condition. The drug concentrations were measured over 6 timepoints collected between 0 and 12 hours of incubation by liquid-chromatography-coupled mass spectrometry (LC–MS); design: dose 5 uM, timepoint 0, 1.5, 3, 6, 9, 12 hours; settings: lachnospira eligens, 5 µM
[24] = The drug is tested on Lactobacillus reuteri strain: DSM20016 for biotransformation under anaerobic condition. The drug concentrations were measured over 6 timepoints collected between 0 and 12 hours of incubation by liquid-chromatography-coupled mass spectrometry (LC–MS); design: dose 5 uM, timepoint 0, 1.5, 3, 6, 9, 12 hours; settings: limosilactobacillus reuteri, 5 µM
[25] = The drug is tested on Alloscardovia omnicolens strain: DSM21503 for biotransformation under anaerobic condition. The drug concentrations were measured over 6 timepoints collected between 0 and 12 hours of incubation by liquid-chromatography-coupled mass spectrometry (LC–MS); design: dose 5 uM, timepoint 0, 1.5, 3, 6, 9, 12 hours; settings: 5 µM
[26] = as §2, with “A-04” for “A-07”; design: dose 5 uM, timepoint 0, 0.75, 1.5, 3, 6, 9, 12 hours; settings: 5 µM
[27] = The drug is tested on Ruminococcus gnavus strain: ATCC29149 for biotransformation under anaerobic condition. The drug concentrations were measured over 6 timepoints collected between 0 and 12 hours of incubation by liquid-chromatography-coupled mass spectrometry (LC–MS); design: dose 5 uM, timepoint 0, 1.5, 3, 6, 9, 12 hours; settings: mediterraneibacter gnavus, 5 µM
[28] = The drug is tested on Eubacterium hallii strain: DSM3353 for biotransformation under anaerobic condition. The drug concentrations were measured over 6 timepoints collected between 0 and 12 hours of incubation by liquid-chromatography-coupled mass spectrometry (LC–MS); design: dose 5 uM, timepoint 0, 1.5, 3, 6, 9, 12 hours; settings: anaerobutyricum hallii, 5 µM
[29] = The drug is tested on Escherichia coli strain: DSM27469 for biotransformation under anaerobic condition. The drug concentrations were measured over 6 timepoints collected between 0 and 12 hours of incubation by liquid-chromatography-coupled mass spectrometry (LC–MS); design: dose 5 uM, timepoint 0, 1.5, 3, 6, 9, 12 hours; settings: 5 µM

| Bacterial Biotransformation [1] | Bacterial Biotransformation [2] | Bacterial Biotransformation [3] | Bacterial Biotransformation [4] | Bacterial Biotransformation [5] | Bacterial Biotransformation [6] | Bacterial Biotransformation [7] | Bacterial Biotransformation [8] | Bacterial Biotransformation [9] | Bacterial Biotransformation [10] | Bacterial Biotransformation [11] | Bacterial Biotransformation [12] | Bacterial Biotransformation [13] | Bacterial Biotransformation [15] | Bacterial Biotransformation [16] | Bacterial Biotransformation [17] | Bacterial Biotransformation [18] | Bacterial Biotransformation [19] | Bacterial Biotransformation [21] | SMILES | Bacterial Biotransformation [14] | further results |
| --- | --- | --- | --- | --- | --- | --- | --- | --- | --- | --- | --- | --- | --- | --- | --- | --- | --- | --- | --- | --- | --- |
| Compound metabolized | Compound NOT metabolized | Compound NOT metabolized | Compound NOT metabolized | Compound NOT metabolized | Compound NOT metabolized | Compound NOT metabolized | Compound NOT metabolized | Compound NOT metabolized | Compound NOT metabolized | Compound NOT metabolized | Compound NOT metabolized | Compound NOT metabolized | Compound NOT metabolized | Compound NOT metabolized | Compound NOT metabolized | Compound NOT metabolized | Compound NOT metabolized | Compound NOT metabolized | CCOC(=O)[C@H](CCc1ccccc1)N[C@@H](C)C(=O)N1[C@H](C(=O)O)C[C@@H]2CCC[C@@H]21 | Compound NOT metabolized | Bacterial Biotransformation [20]: Compound NOT metabolized; Bacterial Biotransformation [22]: Compound NOT metabolized; Bacterial Biotransformation [23]: Compound NOT metabolized; Bacterial Biotransformation [24]: Compound NOT metabolized; Bacterial Biotransformation [25]: Compound NOT metabolized; Bacterial Biotransformation [26]: Compound NOT metabolized; Bacterial Biotransformation [27]: Compound NOT metabolized; Bacterial Biotransformation [28]: Compound NOT metabolized; Bacterial Biotransformation [29]: Compound NOT metabolized |
| Compound metabolized | Compound NOT metabolized | Compound metabolized | Compound metabolized | Compound metabolized | Compound metabolized | Compound NOT metabolized | Compound metabolized | Compound NOT metabolized | Compound metabolized | Compound metabolized | Compound NOT metabolized | Compound metabolized | Compound metabolized | Compound metabolized | Compound NOT metabolized | Compound NOT metabolized | Compound NOT metabolized | Compound NOT metabolized | Cn1cnc([N+](=O)[O-])c1Sc1ncnc2nc[nH]c12 [AZATHIOPRINE] | Compound NOT metabolized | Bacterial Biotransformation [20]: Compound metabolized; Bacterial Biotransformation [22]: Compound NOT metabolized; Bacterial Biotransformation [23]: Compound metabolized; Bacterial Biotransformation [24]: Compound NOT metabolized; Bacterial Biotransformation [25]: Compound metabolized; Bacterial Biotransformation [26]: Compound metabolized; Bacterial Biotransformation [27]: Compound metabolized; Bacterial Biotransformation [28]: Compound metabolized; Bacterial Biotransformation [29]: Compound metabolized |

| SMILES | Bacterial Biotransformation [1] | Bacterial Biotransformation [2] | Bacterial Biotransformation [3] | Bacterial Biotransformation [4] | Bacterial Biotransformation [5] | Bacterial Biotransformation [6] | Bacterial Biotransformation [7] | Bacterial Biotransformation [8] | Bacterial Biotransformation [9] | Bacterial Biotransformation [10] | Bacterial Biotransformation [11] | Bacterial Biotransformation [12] | Bacterial Biotransformation [13] | Bacterial Biotransformation [15] | Bacterial Biotransformation [16] | Bacterial Biotransformation [17] | Bacterial Biotransformation [18] | Bacterial Biotransformation [19] | Bacterial Biotransformation [21] | Bacterial Biotransformation [14] | further results |
| --- | --- | --- | --- | --- | --- | --- | --- | --- | --- | --- | --- | --- | --- | --- | --- | --- | --- | --- | --- | --- | --- |
| CCOC(=O)C1=C(COCCN)NC(C)=C(C(=O)OC)C1c1ccccc1Cl (stereo unspecified) [AMLODIPINE] | Compound NOT metabolized | Compound NOT metabolized | Compound NOT metabolized | Compound NOT metabolized | Compound NOT metabolized | Compound NOT metabolized | Compound NOT metabolized | Compound NOT metabolized | Compound NOT metabolized | Compound NOT metabolized | Compound NOT metabolized | Compound metabolized | Compound NOT metabolized | Compound NOT metabolized | Compound NOT metabolized | Compound NOT metabolized | Compound NOT metabolized | Compound NOT metabolized | Compound NOT metabolized | Compound NOT metabolized | Bacterial Biotransformation [22]: Compound NOT metabolized; Bacterial Biotransformation [23]: Compound NOT metabolized; Bacterial Biotransformation [24]: Compound NOT metabolized; Bacterial Biotransformation [25]: Compound NOT metabolized; Bacterial Biotransformation [26]: Compound NOT metabolized; Bacterial Biotransformation [27]: Compound NOT metabolized; Bacterial Biotransformation [28]: Compound NOT metabolized; Bacterial Biotransformation [29]: Compound NOT metabolized |
